Laboratory results taken from publication PMC3460729, “Innate immune properties of selected human neuropeptides against Moraxella catarrhalis and nontypeable Haemophilus influenzae” (BMC Immunology, 2012).
Marks after values point to notes of the source that are not given here.

What was measured:
[1] = tested on: E. coli ML-35p; test: ONPG-mediated β-galactosidase membrane permeability assay; type: cell-based, Escherichia coli; settings: for time of maximal OD increase (ONPG influx): 100 μM neuropeptide; for ID50 (inducible dose) for intracellular influx of ONPG: dose causing 50% increase in OD405 in reference to chloroform-inducible maximum at 45 min, 10^6 CFU/ml, NaPB pH 7.4, 3 mM ONPG, 37°C, triplicate
Description: To measure the activity of neuropeptides in permeabilization of bacterial membrane, the ONPG-mediated β-galactosidase microplate assay was used. Permeabilization was measured using E. coli ML-35 with constitutive cytoplasmic β-galactosidase activity as previously described. Briefly, 18 h E. coli ML-35p in TSB was recultivated in TSB until mid-log phase (OD600 = 0.5). Flasks were put on ice for 20 min, and 2 ml of bacterial suspensions were transferred to Eppendorf tubes, washed twice with 10 mM sodium phosphate NaPB (pH 7.4) and suspended in NaPB to OD600 = 0.5. […] Microplates were incubated at 37°C for 1.5 h and optical densities were measured every 15 minutes at λ=405 nm (spectrophotometer Opsys MR Dynex Technologist). All the assays were performed in triplicate. Two positive controls were used: polymyxin B at the final concentration of 1 μg/ml as an established model of peptide permeabilizing action, and 20% chloroform (v/v). […] The molar concentration of NP that caused such increase was extrapolated from a linear portion of NP titration curve. Negative controls constituted bacteria incubated with NaPB and ONPG but without neuropeptides.

[2] = tested on: nontypeable H. influenzae NTHi3, NTHi6; test: Time kill assay from 0 to 1.5 h; type: cell-based, Haemophilus influenzae; settings: 100 μM, clinical isolates of H. influenzae
Description: (§1) For the time kill assay from 0 to 1.5 h, overnight cultures of Mc and NTHi were inoculated into new medium and incubated under the relevant conditions until early log-phase (OD600 = 0.25–0.3). The bacteria were diluted in 10 mM sodium phosphate buffer, NaPB, (pH 7.4) containing 1% (w/v) BHI to obtain ~2 x 10^6 CFU/ml. […] After each time of incubation the suspensions were 10-fold serially diluted with 10 mM NaPB-1% BHI and 20 μl aliquots were plated in triplicate on BHI (M. catarrhalis) or HAEM (H. influenzae) agar plates. The plates were incubated overnight at 37°C in 5% CO2 conditions. Simultaneously, the incubation of bacteria in the presence of an appropriate diluent was included for positive control of bacterial growth. The colony counts and CFU/ml were calculated next day. The bactericidal activity of neuropeptides was expressed as survival ratios determined as the numbers of CFU after neuropeptide incubation divided by the numbers of CFU estimated from a control plate (time 0). All antimicrobial assays were performed at least two times in triplicate.

[3] = tested on: M. catarrhalis Mc5, Mc6; test: Time kill assay from 0 to 1.5 h; type: cell-based, Moraxella catarrhalis; settings: 100 μM
Description: as §1

[4] = tested on: human PMNs; test: fMLF-induced ROS generation by PMNs, luminol-dependent chemiluminescence; type: cell-based; settings: for ROS release [% of control]: 0.2 μM fMLF, peak height PHCL, mean of three independent experiments
Description: (§2) Polymorphonuclear leukocytes (PMNs) from healthy young adult volunteers were isolated from venous blood samples anticoagulated with Lithium-heparin (7.5 ml) by ficoll (Aqua-Med, Poland) density gradient centrifugation (2000 rpm/30 min), followed by hypotonic lysis of erythrocytes with a lysing buffer (0.83% NH4Cl, 0.1% KHCO3, EDTA, pH 7.4). After two washes (1400 rpm/10 min) in PBS, PMNs were resuspended to the final concentration of […] cells/ml in phagocytic buffer: HBSS with Ca^++ and Mg^++ supplemented with 1% HiFBS. The purity of granulocyte suspensions was checked using 15 μg/ml of acridine orange. […] Isolated PMNs were kept for 30 min at 37°C and 5% CO2 until used.
(§3) Reactive oxygen species (ROS) formation by PMNs was measured using luminol-dependent chemiluminescence assay (CL) in white flat-bottom 96-well microplates (NUNC, Denmark). The reaction mixture of total volume 200 μl in each well contained: 100 μl of PMN suspension in HBSS–Ca^++Mg^++ (10^5 cells/well), 40 μl of luminol (50 μM/well), 40 μl of fMLP (0.2 μM/well), 20 μl of particular NP (in the range 10^−12–10^−8 M/well). In other experiments, the respiratory burst was triggered by phagocytosis of 40 μl heat killed (56°C/30 min) M. catarrhalis ATCC 25238 or H. influenzae ATCC 49247 at concentration of ½ of OD600 = 1 or OD600 = 1, respectively. […] The PMA stimulus at 0.1 μM final concentration was used as positive control of the relevant oxidative stress. The CL kinetics was measured at constant 37°C temperature using luminometer (Microlumat, LB96P, Berthold) and recorded as relative light units (RLU). Measuring conditions for fMLP were: interval (46 s), run time (up to 30 min). The conditions for bacterial and PMA stimulation were: interval (83 s), run time (up to 60 min). The maximal value of CL response curve was expressed as peak height (PHCL) for fMLP stimulant. In other cases the area under chemiluminescence curve (AUCCL) was calculated. Each sample was run in triplicate and the values were averaged. […] Results were expressed as mean ± SD.

[5] = tested on: human PMNs stimulated with M. catarrhalis ATCC 25238; test: M. catarrhalis-stimulated ROS generation by PMNs, luminol-dependent chemiluminescence; type: cell-based; settings: 10^−8 M NP, nonopsonized M. catarrhalis; mean ± SD, n = 5-6 donors
Description: as §2
Reactive oxygen species (ROS) formation by PMNs was measured using luminol-dependent chemiluminescence assay (CL) in white flat-bottom 96-well microplates (NUNC, Denmark). The reaction mixture of total volume 200 μl in each well contained: 100 μl of PMN suspension in HBSS–Ca^++Mg^++ (10^5 cells/well), 40 μl of luminol (50 μM/well), 40 μl of fMLP (0.2 μM/well), 20 μl of particular NP (in the range 10^−12–10^−8 M/well). […] The maximal value of CL response curve was expressed as peak height (PHCL) for fMLP stimulant. In other cases the area under chemiluminescence curve (AUCCL) was calculated. […] Results were expressed as mean ± SD.

[6] = tested on: human PMNs; test: PMA-induced chemiluminescence in PMNs; type: cell-based; settings: 0.1 μM PMA, 0 to 60 min; five independent experiments in triplicate, 5 donors
Description: as §3, with “SD. […]” for “SD.”

Row | SMILES | time of maximal OD increase (ONPG influx) [1] [min] | ID50 (inducible dose) for intracellular influx of ONPG [1] [µM] | type of antibacterial activity [2] | type of antibacterial activity ([3]; both Mc strains) | ROS release [% of control] ([4]; 10^-8 M NP) | ROS release [% of control] ([4]; 10^-10 M NP) | ROS release [% of control] ([4]; 10^-12 M NP) | activation of respiratory burst of PMNs ([4]; neuropeptide alone, without stimulus) | culture survived ([3]; Mc5 and Mc6, 0.5 h) [%] | increase of mean AUCCL [5] [%] | log10 of mean AUCCL ± SEM [6]
1 | C[C@H](N)C(=O)NCC(=O)N[C@H]1CSSC[C@@H](C(=O)O)NC(=O)[C@H](CO)NC(=O)[C@H]([C@@H](C)O)NC(=O)[C@H](Cc2ccccc2)NC(=O)[C@H]([C@@H](C)O)NC(=O)[C@H](CCCCN)NC(=O)[C@H](Cc2c[nH]c3ccccc23)NC(=O)[C@H](Cc2ccccc2)NC(=O)[C@H](Cc2ccccc2)NC(=O)[C@H](CC(N)=O)NC(=O)[C@H](CCCCN)NC1=O [SOM, somatostatin] | 90 | 104.1 | bacteriostatic | bacteriostatic | – | – | – | – | – | – | –
2 | CSCC[C@H](NC(=O)[C@H](CC(C)C)NC(=O)CNC(=O)[C@H](Cc1ccccc1)NC(=O)[C@H](Cc1ccccc1)NC(=O)[C@H](CCC(N)=O)NC(=O)[C@H](CCC(N)=O)NC(=O)[C@@H]1CCCN1C(=O)[C@H](CCCCN)NC(=O)[C@@H]1CCCN1C(=O)[C@@H](N)CCCNC(=N)N)C(N)=O [SP, substance P] | 90 | 29.2 | – | – | 179.18^a % of control | 160.36^a % of control | 140.83^a % of control | did not activate | ~100 | 14.2 ± 3.4 | –
3 | CCCCCCCCCCCCCC(=O)O[C@@H]1[C@@H](C)[C@@]2(O)[C@@H](C=C(CO)C[C@]3(O)C(=O)C(C)=C[C@@H]23)[C@@H]2C(C)(C)[C@]12OC(C)=O [PMA, phorbol myristate acetate] | – | – | – | – | – | – | – | – | – | – | 6.05 ± 4.32
